Source: ChEMBL document CHEMBL3217430, “Experimental validation of in silico target predictions on synergistic protein targets” (Medchemcomm, 2013)
Activity calls are given as the source filed them. The calls are words filed in the database; no cut-off is given here.

Assays:
Escherichia coli = assay: Inhibition of Escherichia coli topoisomerase assessed as bacterial proliferation at 200 uM after 24 hrs by visual inspection assay
DNA topoisomerase 1 = target: T1, DNA topoisomerase 1 (Homo sapiens, UniProt P11387); assay: Inhibition of human topoisomerase 1 activity assessed as DNA triplex formation and presence of supercoiled DNA by microplate assay
T1 sequence (P11387 whole entry): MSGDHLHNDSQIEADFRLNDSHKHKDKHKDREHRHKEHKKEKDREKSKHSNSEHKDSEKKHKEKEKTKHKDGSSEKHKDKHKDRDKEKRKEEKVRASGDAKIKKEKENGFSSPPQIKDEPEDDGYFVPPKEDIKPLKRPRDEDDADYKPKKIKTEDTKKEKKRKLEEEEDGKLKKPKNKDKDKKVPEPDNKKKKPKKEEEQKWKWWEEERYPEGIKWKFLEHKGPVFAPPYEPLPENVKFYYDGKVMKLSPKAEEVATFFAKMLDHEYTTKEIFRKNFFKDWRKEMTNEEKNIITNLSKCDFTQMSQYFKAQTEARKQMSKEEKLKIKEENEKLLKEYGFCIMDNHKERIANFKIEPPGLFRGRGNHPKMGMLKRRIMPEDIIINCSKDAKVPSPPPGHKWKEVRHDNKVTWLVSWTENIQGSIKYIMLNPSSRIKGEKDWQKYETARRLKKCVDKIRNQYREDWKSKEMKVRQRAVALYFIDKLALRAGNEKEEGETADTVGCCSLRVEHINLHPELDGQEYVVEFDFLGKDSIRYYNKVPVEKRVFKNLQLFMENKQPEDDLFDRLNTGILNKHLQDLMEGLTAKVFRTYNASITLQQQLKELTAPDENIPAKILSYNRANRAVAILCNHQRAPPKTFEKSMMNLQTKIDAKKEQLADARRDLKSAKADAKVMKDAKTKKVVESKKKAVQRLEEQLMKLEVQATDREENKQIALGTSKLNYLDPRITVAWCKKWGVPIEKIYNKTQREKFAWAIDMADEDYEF

HeLa [1] = assay: Cytotoxicity against human HeLa cells assessed as cell viability at 120 uM after 3 days by CellTiter96 Aqueous One Solution assay; assay type: functional, cell-based
HeLa [2] = assay: Cytotoxicity against human HeLa cells assessed as cell viability at 120 uM after 3 days by CellTiter96 Aqueous One Solution assay (reference value: 100%); assay type: functional; settings: 72 h, read-out: Activity
HeLa [3] = assay: Effect on apoptosis in human HeLa cells assessed as cell morphology and extracellular membrane after 48 hrs; assay type: functional, cell-based
[4] = target: T2, ATP-dependent translocase ABCB1 (Homo sapiens, UniProt P08183); assay: Inhibition of P-glycoprotein 1 in human HeLa cells assessed as intracellular accumulation of Hoechst 33342 dye after 30 mins by fluorescence microscopic analysis; assay type: cell-based
T2 sequence (P08183 whole entry): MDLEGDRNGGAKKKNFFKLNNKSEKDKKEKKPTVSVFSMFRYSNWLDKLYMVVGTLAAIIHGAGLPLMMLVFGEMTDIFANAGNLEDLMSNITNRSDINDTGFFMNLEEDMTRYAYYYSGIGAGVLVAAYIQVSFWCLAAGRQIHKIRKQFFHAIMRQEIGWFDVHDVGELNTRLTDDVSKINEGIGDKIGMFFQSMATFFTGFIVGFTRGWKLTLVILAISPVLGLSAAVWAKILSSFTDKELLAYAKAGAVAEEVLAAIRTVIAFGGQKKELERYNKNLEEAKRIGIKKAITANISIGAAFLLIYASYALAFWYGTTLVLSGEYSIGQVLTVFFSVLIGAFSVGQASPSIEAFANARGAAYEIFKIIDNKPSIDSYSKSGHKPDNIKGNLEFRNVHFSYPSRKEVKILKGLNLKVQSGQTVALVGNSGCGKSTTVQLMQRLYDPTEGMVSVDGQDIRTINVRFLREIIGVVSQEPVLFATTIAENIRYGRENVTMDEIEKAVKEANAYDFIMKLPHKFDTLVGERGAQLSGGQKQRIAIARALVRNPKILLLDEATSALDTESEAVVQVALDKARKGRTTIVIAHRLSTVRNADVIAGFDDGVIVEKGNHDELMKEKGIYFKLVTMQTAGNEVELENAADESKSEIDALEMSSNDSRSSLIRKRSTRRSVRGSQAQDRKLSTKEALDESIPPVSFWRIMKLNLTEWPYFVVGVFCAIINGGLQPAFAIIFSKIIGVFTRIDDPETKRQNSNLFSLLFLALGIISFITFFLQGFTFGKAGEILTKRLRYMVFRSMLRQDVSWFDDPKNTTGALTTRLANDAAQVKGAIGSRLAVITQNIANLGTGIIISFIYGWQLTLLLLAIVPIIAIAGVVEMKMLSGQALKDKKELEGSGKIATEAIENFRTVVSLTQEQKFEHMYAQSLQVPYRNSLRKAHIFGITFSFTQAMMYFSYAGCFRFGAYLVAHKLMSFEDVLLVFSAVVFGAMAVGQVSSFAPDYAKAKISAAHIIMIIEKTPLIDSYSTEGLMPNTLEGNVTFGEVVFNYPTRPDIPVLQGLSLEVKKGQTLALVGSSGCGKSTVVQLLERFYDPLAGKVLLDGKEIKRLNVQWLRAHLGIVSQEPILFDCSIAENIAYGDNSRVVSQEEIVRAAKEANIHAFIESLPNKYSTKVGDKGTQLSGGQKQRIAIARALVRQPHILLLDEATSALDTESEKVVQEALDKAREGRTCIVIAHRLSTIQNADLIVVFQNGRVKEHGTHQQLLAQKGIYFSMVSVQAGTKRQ

[5] = target: T2, ATP-dependent translocase ABCB1; assay: Inhibition of human P-glycoprotein 1 ATPase activity assessed as remaining ATP level by luminescence analysis

With `NC(=O)c1ncn([C@@H]2O[C@H](CO)[C@@H](O)[C@H]2O)n1` [RIBAVIRIN] the inhibition (Escherichia coli) was “inactive” and the IC50 (DNA topoisomerase 1) was 65.9 µM.
With `CC(=O)OCC(OC(C)=O)C(OC(C)=O)C(OC(C)=O)C(OC(C)=O)C(OC(C)=O)OC(C)=O` (centres undefined) the Activity (HeLa [1]) was “inactive”.
`O=c1c(-c2ccc3c(c2)OCCO3)coc2cc(OC3OC(CO)C(O)C(O)C3O)ccc12` (centres undefined) was tested, and the viability at 120 µM (HeLa [2]) was 82%.
In the case of `CC(=O)OCC1OC(Sc2ccccc2)C(OC(C)=O)C(OC(C)=O)C1OC(C)=O` (centres undefined), the Activity (HeLa [3]) is reported as “inactive”, the viability at 120 µM (HeLa [2]) is reported as 87% and the IC50 [4] is reported as 15.4 µM. The IC50 [5] was 37 µM.
With `CCSC(SCC)C(O)C(O)C(O)C(O)CO` (centres undefined) the Activity (HeLa [1]) was “inactive”.
`CC(=O)OCC(OC(C)=O)C(OC(C)=O)C(O)C1SCC(C(=O)N(C)C)N1C(C)=O` (centres undefined) was tested, and the Activity (HeLa [1]) was “inactive”.
For `CC(=O)OC[C@H](OC(C)=O)[C@H](OC(C)=O)[C@@H](CNC(=O)c1ccc(C)c(C)c1)OC(C)=O`, the Activity (HeLa [3]) was “inactive”, the Activity (HeLa [1]) was “inactive” and the IC50 [4] was 15.5 µM. It also gave an IC50 [5] of 28 µM.
With `CN(C=C(C#N)C#N)CC(O)C(O)C(O)C(O)CO` (centres undefined) the inhibition (Escherichia coli) was “inactive”, the Activity (HeLa [1]) was “inactive” and the IC50 (DNA topoisomerase 1) was 47.5 µM.
Molecule `CC(=O)c1ccc(OCC(O)CN2CCN(C(c3ccccc3)c3ccccc3)CC2)cc1` (centres undefined) has a viability at 120 µM (HeLa [2]) of 37%.
In the case of `CO[C@@H]1O[C@H](CO)[C@H](O)[C@H](O)[C@H]1O`, the Activity (HeLa [1]) is reported as “inactive”.
